Measurements reported in patent publication US5512573A, “Use of phthaloylhydrazide derivatives as anti-hypoxic and defensive agents” (priority 1993, dated 1996).

Tests used:
[1] = Summary of experiments on phthaloylhydrazide derivatives; format: in vivo
[2] = system: psoriasis
Description: Patient, ill for 5 years. Was cured in the hospital several times during that period. Complained about itching, general weakness, unpleasant sensations in parts of the skin. […] Diagnosis: psoriasis approaching the acute phase.
The drug was administered intravenously to the patient.

[3] = system: skin transplant rejection in chinchillas; conditions: intravenous, p<0.01
Description: The experiments involved 30 chinchillas from which a strip of skin was removed measuring 2×2 cm. The resulting lesion was covered by an outside transplant. The animals were divided into three groups.
The first group was treated with traditional therapy (prednisolone and cyclosporine); the second group was given 5aminophthaloylhydrazide daily in a dose of 150 mg/kg; the third group received a combined treatment.
To assess the efficacy of the drug, the period before the rejection was measured and morphological studies were conducted.

[4] = system: male mice; conditions: 40 to 80 mg/kg
Description: To study the pharmacological properties on the central nervous system, doses of 40 to 80 mg per kilogram of body weight were used. The choice of doses was based on safety criteria governing the use of medicines.
The neuropharmacological effects were studied in male mice of undefined strain which had reached sexual maturity. The mice, weighing 18 to 20 g, were given a solution of the drug intraabdominally. The neuropharmacological effects were studied on the basis of changes in the natural orientation reflex, in induced aggressiveness, and in muscle tone. The change in the natural sense of orientation was recorded according to the current method. To study the effect of the drug on induced aggressiveness, the electrical stimulation method (pain caused by electric current) was used.
The change in muscle tone was measured by means of the "pivot pin" method.

For `Nc1cccc2c(=O)[nH][nH]c(=O)c12` [5-aminophthaloylhydrazide, 5-amino-2,3-dihydrophthalazine-1,2 dione], the “pharmacological activity, anti-hypoxic and defensive action” value ([1]; doses of 10 to 300 mg/kg) was “possess a pronounced pharmacological activity”, the therapeutic effects ([1]; in vivo) was “major therapeutic effects” and the “response to subsequent treatment cycle” value ([2]; 12 days) was “made it possible to eliminate the main symptoms and led to a long-term remission of the main symptoms”. For the same compound, the “residual pustules and papules” value ([2]; flexor parts of the hands) was “Individual pustules and papules on the flexor parts of the hands remained”, the “time to return of acute symptoms” value ([2]; human, in vivo) was 4 months and the clinical symptoms ([2]; intravenous, after 10 days of treatment) was “the itching and weakness disappeared, the temperature dropped and the skin symptoms disappeared”. For the same compound, the “affected parts of the skin tissue” value ([2]; intravenous, day 20) was “the affected parts of the skin tissue had shrunk”, the “rejection process vs traditional therapy” value [3] was “slowed the rejection process down considerably” and the pain threshold [4] was “nor did it cause changes in muscle tone or modifications in the pain threshold”. The natural orientation reflex ([4]; intraabdominal) was “did not suppress the natural orientation reflex” and the muscle tone ([4]; pivot pin method) was “nor did it cause changes in muscle tone”.
